Measured values published in patent US20260356851A1, “TRICYCLIC COMPOUNDS AND USES THEREOF” (HUTCHMED LIMITED, priority 2023, published 2026).

Columns and labels:
Format in all cases: cell-based
[1] = biological target: T1, pERK1/2 (Thr202/Tyr204), NCI-1H441 (KRAS G12V) (Homo sapiens, UniProt P01116, G12V); experiment: Assay of intracellular pERK1/2 (Thr202/Tyr204) phosphorylation in NCI-H441 cells (KRAS G12V); settings: pERK1/2, 2 days, read-out: NCI-H441 (KRAS G12V) IC50
T1 construct: pERK1/2 HTRF read-out
T1 sequence (P01116 1-188 isoform P01116-2 G12V): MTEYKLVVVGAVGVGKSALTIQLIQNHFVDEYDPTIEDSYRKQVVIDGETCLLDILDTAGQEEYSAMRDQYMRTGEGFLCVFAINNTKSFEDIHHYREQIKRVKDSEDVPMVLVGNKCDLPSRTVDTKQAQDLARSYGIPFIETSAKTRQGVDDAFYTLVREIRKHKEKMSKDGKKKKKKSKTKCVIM
Method: (§1) Example 2: Assay of intracellular pERK1/2 (Thr202/Tyr204)phosphorylation
(§2) 1. Reagents and materials: • pERK1/2 (Thr202/Tyr2O4) HIRE kit, Cisbio, Cat #64ERKPEH; • OptiPlate™-384-well plate, PerkinElmer, Cat #6007299; • 96-well plate, Coming, Cat #353072; • Instrument: EnVision2104, PerkinElmer; • Cell lines: NCI-1H358 (KRAS G12C), ATCC, CRL-5807; PANC-1 (KRAS G121D), ATCC, CRL-1469; NCI-1H441 (KRAS G12V), ATCC, HTB-174.
(§3) 2. Preparation of Reaction Solutions
(§4) • A test compound was dissolved in DMSO, diluted to 200.0 μM and further diluted 3-fold to prepare a series of test compounds at concentrations of 66.7, 22.2, 7.4, 2.5, 0.82, 0.27, 0.09 μM etc. Then 10 μL of the compound at different dilution concentrations was added to 190 μL of a DMEM medium to prepare a 10× test compound; • 1× cell lysis buffer: 4× cell lysis stock solution (provided by the kit) was diluted 4-fold with deionized water, and then 10% 100× blocking stock solution (provided by the kit) was added thereto. • pERK1/2 detection solution (prepared just before use): the pERK1/2 d2 antibody (provided by the kit) and pERK1/2 Cryptate antibody (provided by the kit) were diluted with the detection solution (provided by the kit) at a ratio of 1:1:38.
(§5) • Cells were inoculated into a 96-well plate (100 μL/well) at a density of 10000-12000/well. No cell was inoculated into a negative control well, and only the cell medium was added at 100 μL/well. The plate was placed in a cell incubator at 5% CO2 and 37° C. overnight. • 10 μL of the 10× test compound was added to the 100 μL cell culture 96-well plate; both the positive control well (that is, the control hole without chemical compound treatment) and the negative control well were charged with 10 μL of a 5% DMSO culture solution; and the plate was cultured in a cell incubator at 5% CO2 and 37° C. for 2 days. • The medium in the 96-well plate was removed; 50 μL of the 1× cell lysis buffer was added to each of the wells; the plate was placed in a microplate shaker; and lysis under shaking was carried out at 900 rpm at room temperature for 1 hour. • 16 μL of the lysis buffer in the 96-well plate was taken and transferred to a 384-well plate, followed by centrifugation at 1000 rpm for 30 s; then 4 μL of pERK1/2 detection solution was added to each well, followed by centrifugation at 1000 rpm for 30 s; and the 384-well plate was sealed with a sealing membrane and incubated at 25° C. on a low-speed shaker at 100 rpm in the dark for 2 hours. • The fluorescence value (RFU) of each well was detected on EnVision2104, with an emission wavelength 1 being 665 nm and an emission wavelength 2 being 615 nm.
(§6) Fluorescence ratio=fluorescence value665 nm/fluorescence value615 nm
(§7) Inhibition rate (%)=100−((fluorescence ratio of compound well−fluorescence ratio of negative control well)/(fluorescence ratio of positive control well−fluorescence ratio of negative control well))×100
(§8) wherein: • the fluorescence ratio of compound well refers to the fluorescence ratio of the well containing the test compounds; • the fluorescence ratio of negative control well refers to the fluorescence ratio of the cell-free control well; • the fluorescence ratio of positive control well refers to the fluorescence ratio of the cell well treated with 0.5% DMSO.
(§9) IC50 value: obtained by calculation using XL-Fit 5.0 software.

[2] = biological target: T2, pERK1/2 (Thr202/Tyr204), PANC-1 (KRAS G121D) (Homo sapiens, UniProt P01116, G12D); experiment: Assay of intracellular pERK1/2 (Thr202/Tyr204) phosphorylation in PANC-1 cells (KRAS G12D); settings: pERK1/2, 2 days, read-out: PANC-1 (KRAS G12D) IC50
T2 construct: pERK1/2 HTRF read-out
T2 sequence (P01116 1-188 isoform P01116-2 G12D): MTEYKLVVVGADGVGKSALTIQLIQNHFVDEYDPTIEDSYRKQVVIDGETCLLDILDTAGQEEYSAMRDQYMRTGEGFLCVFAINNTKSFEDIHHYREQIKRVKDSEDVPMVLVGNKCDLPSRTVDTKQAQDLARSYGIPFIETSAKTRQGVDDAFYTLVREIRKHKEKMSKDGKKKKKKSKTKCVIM
Method: as §1, §2, §3, §4, §5, §6, §7, §8, §9

[3] = biological target: T3, pERK1/2 (Thr202/Tyr204), NCI-1H358 (KRAS G12C) (Homo sapiens, UniProt P01116, G12C); experiment: Assay of intracellular pERK1/2 (Thr202/Tyr204) phosphorylation in NCI-H358 cells (KRAS G12C); settings: pERK1/2, 2 days, read-out: NCI-H358 (KRAS G12C) IC50
T3 construct: pERK1/2 HTRF read-out
T3 sequence (P01116 1-188 isoform P01116-2 G12C): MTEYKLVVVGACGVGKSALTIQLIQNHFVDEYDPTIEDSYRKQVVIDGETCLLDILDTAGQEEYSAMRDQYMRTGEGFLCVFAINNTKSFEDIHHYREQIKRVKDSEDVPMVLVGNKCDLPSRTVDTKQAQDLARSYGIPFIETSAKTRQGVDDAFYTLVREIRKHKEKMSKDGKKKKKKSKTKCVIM
Method: as §1, §2, §3, §4, §5, §6, §7, §8, §9

Row | Structure (SMILES) | IC50 [1] [nM] | IC50 [2] [nM] | IC50 [3] [nM]
1 | CC(c1cccnc1N)N1CCOc2nc(-c3cc(O)cc(F)c3C3CC3)c(F)c3nc(OC[C@@H]4CC(F)(F)CN4C)nc1c23 (single isomer, unassigned) [Compound 48, 3-(10-((R or S)-1-(2-aminopyridin-3-yl)ethyl)-2-(((S)-4,4-difluoro-1-methylpyrrolidin-2-yl)methoxy)-4-fluoro-9,10-dihydro-8H-7-oxa-1,3,6,10-tetraazacyclohepta[de]naphthalen-5-yl)-4-cyclopropyl-5-fluorophenol] | > 1000 | > 1000 | > 1000
2 | CC(c1cccnc1N)N1CCOc2nc(-c3cc(O)cc(F)c3C3CC3)c(F)c3nc(OC[C@@H]4CC(F)(F)CN4C)nc1c23 (single isomer, unassigned) [Compound 49, 3-(10-((R or S)-1-(2-aminopyridin-3-yl)ethyl)-2-(((S)-4,4-difluoro-1-methylpyrrolidin-2-yl)methoxy)-4-fluoro-9,10-dihydro-8H-7-oxa-1,3,6,10-tetraacyclohepta[de]naphthalen-5-yl)-4-cyclopropyl-5-fluorophenol] | 22 | 557 | 15
3 | CC(c1cccnc1N)N1CCOc2nc(-c3cc(O)cc4ccc(F)c(F)c34)c(F)c3nc(OC[C@@H]4CC(F)(F)CN4C)nc1c23 (single isomer, unassigned) [Compound 50, 4-(10-((R or S)-1-(2-aminopyridin-3-yl)ethyl)-2-(((S)-4,4-difluoro-1-methylpyrrolidin-2-yl)methoxy)-4-fluoro-9,10-dihydro-8H-7-oxa-1,3,6,10-tetraazacyclohepta[de]naphthalen-5-yl)-5,6-difluoronaphthalen-2-ol] | > 1000 | > 1000 | 916
4 | CC(c1cccnc1N)N1CCOc2nc(-c3cc(O)cc4ccc(F)c(F)c34)c(F)c3nc(OC[C@@H]4CC(F)(F)CN4C)nc1c23 (single isomer, unassigned) [Compound 51, 4-(10-((R or S)-1-(2-aminopyridin-3-yl)ethyl)-2-(((S)-4,4-difluoro-1-methylpyrrolidin-2-yl)methoxy)-4-fluoro-9,10-dihydro-8H-7-oxa-1,3,6,10-tetraazacyclohepta[de]naphthalen-5-yl)-5,6-difluoronaphthalen-2-ol] | 5 | 100 | 2
5 | CC(c1cccnc1N)N1CCOc2nc(-c3cc(N)ccc3C(F)(F)F)c(F)c3nc(OC[C@@]45CCCN4C[C@H](F)C5)nc1c23 (single isomer, unassigned) [Compound 53, 3-((R or S)-1-(5-(5-amino-2-(trifluoromethyl)phenyl)-4-fluoro-2-(((2R,7aS)-2-fluorotetrahydro-1H-pyrrolizin-7a(5H)-yl)methoxy)-8,9-dihydro-10H-7-oxa-1,3,6,10-tetraazacyclohepta[de]naphthalen-10-yl)ethyl)pyridin-2-amine] | 191 | > 1000 | 88
6 | CC(c1cccnc1N)N1CCOc2nc(-c3cc(O)cc(Cl)c3C3CC3)c(F)c3nc(OC[C@@H]4CC(F)(F)CN4C)nc1c23 (single isomer, unassigned) [Compound 55, 3-(10-((R or S)-1-(2-aminopyridin-3-yl)ethyl)-2-(((S)-4,4-difluoro-1-methylpyrrolidin-2-yl)methoxy)-4-fluoro-9,10-dihydro-8H-7-oxa-1,3,6,10-tetraazacyclohepta[de]naphthalen-5-yl)-5-chloro-4-cyclopropylphenol] | 511 | > 1000 | 322
7 | CC(c1cccnc1N)N1CCOc2nc(-c3cc(O)cc(Cl)c3C3CC3)c(F)c3nc(OC[C@@H]4CC(F)(F)CN4C)nc1c23 (single isomer, unassigned) [Compound 56, 3-(10-((R or S)-1-(2-aminopyridin-3-yl)ethyl)-2-(((S)-4,4-difluoro-1-methylpyrrolidin-2-yl)methoxy)-4-fluoro-9,10-dihydro-8H-7-oxa-1,3,6,10-tetraazacyclohepta[de]naphthalen-5-yl)-5-chloro-4-cyclopropylphenol] | 5 | 134 | 3

Continued, values first:

Row | IC50 [1] [nM] | IC50 [2] [nM] | IC50 [3] [nM] | Structure (SMILES)
8 | 2 | 21 | 0.7 | CC(c1cccnc1N)N1CCOc2nc(-c3cc(N)ccc3C(F)(F)F)c(F)c3nc(OC[C@@]45CCCN4C[C@H](F)C5)nc1c23 (single isomer, unassigned) [Compound 54, 3-((R or S)-1-(5-(5-amino-2-(trifluoromethyl)phenyl)-4-fluoro-2-(((2R,7aS)-2-fluorotetrahydro-1H-pyrrolizin-7a(5H)-yl)methoxy)-8,9-dihydro-10H-7-oxa-1,3,6,10-tetraazacyclohepta[de]naphthalen-10-yl)ethyl)pyridin-2-amine]
9 | 32 | 746 | 15 | CC(c1cccnc1N)N1CCOc2nc(-c3cc(O)cc(Cl)c3C(F)(F)F)c(F)c3nc(OC[C@@]45CCCN4C[C@H](F)C5)nc1c23 (single isomer, unassigned) [Compound 57, 3-(10-((R or S)-1-(2-aminopyridin-3-yl)ethyl)-4-fluoro-2-(((2R,7aS)-2-fluorotetrahydro-1H-pyrrolizin-7a(5H)-yl)methoxy)-9,10-dihydro-8H-7-oxa-1,3,6,10-tetraazacyclohepta[de]naphthalen-5-yl)-5-chloro-4-(trifluoromethyl)phenol]
10 | 5 | 147 | 3 | CC(c1cccnc1N)N1CCOc2nc(-c3cc(O)cc(Cl)c3C(F)(F)F)c(F)c3nc(OC[C@@]45CCCN4C[C@H](F)C5)nc1c23 (single isomer, unassigned) [Compound 58, 3-(10-((R or S)-1-(2-aminopyridin-3-yl)ethyl)-4-fluoro-2-(((2R,7aS)-2-fluorotetrahydro-1H-pyrrolizin-7a(5H)-yl)methoxy)-9,10-dihydro-8H-7-oxa-1,3,6,10-tetraazacyclohepta[de]naphthalen-5-yl)-5-chloro-4-(trifluoromethyl)phenol]
11 | 0.2 | 0.6 | 0.2 | Cc1cc(N)cc(-c2nc3c4c(nc(OC[C@@]56CCCN5C[C@H](F)C6)nc4c2F)N(C(C)c2cccnc2N)CCO3)c1C(F)(F)F (single isomer, unassigned) [Compound 61, 3-((R or S)-1-(5-(5-amino-3-methyl-2-(trifluoromethyl)phenyl)-4-fluoro-2-(((2R,7aS)-2-fluorotetrahydro-1H-pyrrolizin-7a(5H)-yl)methoxy)-8,9-dihydro-10H-7-oxa-1,3,6,10-tetraazacyclohepta[de]naphthalen-10-yl)ethyl)pyridin-2-amine]
12 | 9 | 55 | 8 | Cc1cc(N)cc(-c2nc3c4c(nc(OC[C@@]56CCCN5C[C@H](F)C6)nc4c2F)N(C(C)c2cccnc2N)CCO3)c1C(F)(F)F (single isomer, unassigned) [Compound 62, 3-((R or S)-1-(5-(5-amino-3-methyl-2-(trifluoromethyl)phenyl)-4-fluoro-2-(((2R,7aS)-2-fluorotetrahydro-1H-pyrrolizin-7a(5H)-yl)methoxy)-8,9-dihydro-10H-7-oxa-1,3,6,10-tetraazacyclohepta[de]naphthalen-10-yl)ethyl)pyridin-2-amine]
